These results are taken from ChEMBL document CHEMBL1122303, “Synthesis and biological activity of a 2-bromoethylamine (mustard) derivative of hemicholinium-3 and hemicholinium-15” (1983).

Holding throughout (format): functional
The species named for assay [1] is Rattus norvegicus. Put plainly: In vitro inhibition of sodium-dependent high-affinity choline uptake activity (1 uM choline) at 2E-5 M concentration in the presence of thiosulfate.
For assay [2], the species on record is Rattus norvegicus. Put plainly: In vitro inhibition of sodium-dependent high-affinity choline uptake activity (1 uM choline) at 2E-5 M concentration in the absence of thiosulfate.
Assay [3] is filed under the species Rattus norvegicus. As to the kind of experiment: In vitro inhibition of sodium-dependent high-affinity choline uptake activity (1 uM choline) at 1E-7 M concentration in the presence of thiosulfate.
Assay [4] is filed under the species Rattus norvegicus. Put plainly: In vitro inhibition of sodium-dependent high-affinity choline uptake activity (1 uM choline) at 5E-8 M concentration in the presence of thiosulfate.
The species entered for assay [5] is Rattus norvegicus. As to the kind of experiment: In vitro inhibition of sodium-dependent high-affinity choline uptake activity (1 uM choline) at 1E-7 M concentration in the absence of thiosulfate.
Assay [6] is filed under the species Rattus norvegicus. As to the kind of experiment: inhibition of sodium-dependent high-affinity choline uptake activity at 25 nM concentration for 7.5 min post wash pre-incubation time.
Assay [7] is filed under the species Rattus norvegicus. Put plainly: inhibition of sodium-dependent high-affinity choline uptake activity at 25 nM concentration for 15 min post wash pre-incubation time.
The species entered for assay [8] is Rattus norvegicus. As to the kind of experiment: Na-dependent high-affinity choline uptake at 25 nM concentration for 7.5 min post wash pre-incubation time.
Assay [9] is filed under the species Rattus norvegicus. As to the kind of experiment: inhibition of sodium-dependent high-affinity choline uptake activity at 25 nM concentration for 2.5 min post wash pre-incubation time.
Assay [10] is filed under the species Rattus norvegicus. Put plainly: In vitro inhibition of sodium-dependent high-affinity choline uptake activity (1 uM choline) at 1E-8 M concentration in the absence of thiosulfate.
For assay [11], the species on record is Rattus norvegicus. As to the kind of experiment: Na-dependent high-affinity choline uptake at 25 nM concentration for 2.5 min post wash pre-incubation time.
The species named for assay [12] is Rattus norvegicus. As to the kind of experiment: Na-dependent high-affinity choline uptake at 25 nM concentration for 15 min post wash preincubation time.
The species named for assay [13] is Rattus norvegicus. As to the kind of experiment: In vitro inhibition of sodium-dependent high-affinity choline uptake activity (1 uM choline) at 5E-8 M concentration in the absence of thiosulfate.

Each structure is given as a SMILES string.

On to `OC1(c2ccccc2)CN(CCBr)CCO1` (configuration not stated), for which the Inhibition in the assay filed under Rattus norvegicus [1] is recorded as 9%; in the assay listed under Rattus norvegicus [2] it was 71%.

As for `C[N+]1(C)CCOC(O)(c2ccccc2)C1` (configuration not stated), the Inhibition in the assay listed under Rattus norvegicus [2] is 58%.

As for `OC1(c2ccc(-c3ccc(C4(O)CN(CCBr)CCO4)cc3)cc2)CN(CCBr)CCO1` (configuration not stated), the Inhibition came to 0% in the assay filed under Rattus norvegicus [3]; 0% in the assay listed under Rattus norvegicus [4]; 100% in the assay listed under Rattus norvegicus [5]; 32.9% in the assay listed under Rattus norvegicus [6]; 34% in the assay filed under Rattus norvegicus [7]; 31.2% in the assay listed under Rattus norvegicus [9]. In addition, the Inhibition in the assay filed under Rattus norvegicus [10] was determined as 84%; in the assay listed under Rattus norvegicus [13], 100%. The Choline uptake in the assay listed under Rattus norvegicus [8] is on record as 59.8 pM (4 min)-1 (mg of protein)-1; in the assay listed under Rattus norvegicus [11], 58.8 pM (4 min)-1 (mg of protein)-1; in the assay listed under Rattus norvegicus [12], 54.9 pM (4 min)-1 (mg of protein)-1.

With `C[N+]1(C)CCOC(O)(c2ccc(-c3ccc(C4(O)C[N+](C)(C)CCO4)cc3)cc2)C1` (configuration not stated) [HEMICHOLINIUM-3], the Inhibition in the assay filed under Rattus norvegicus [4] was found to be 85%; in the assay listed under Rattus norvegicus [10], 35%; in the assay listed under Rattus norvegicus [13] it was 83%.
